Results reported in patent publication US20050119461A1, “Novel receptor, and compounds which bind thereto” (THE UNIVERSITY OF MELBOURNE, priority 1997, published 2005).
Read-outs that look alike come from different tables or passages of the source.

Legend:
[1] = target: Ox receptor; assay: Ox receptor binding, [3H]-rilmenidine displacement in human brain homogenates; conditions: for Ki / Selectivity Ox/I2: human brain homogenates; for Ki: Table 5, read-out: Receptor Affinities (nM) Ox; for Selectivity Ox/I2: >1 = selectivity for the Ox receptor
[2] = target: I2-receptor; assay: I2-receptor binding, [3H]-idazoxan displacement in human brain homogenates; conditions: for Ki: human brain homogenates, Table 5, read-out: Receptor Affinities (nM) I2
[3] = target: α2-adrenoceptor; assay: α2-adrenoceptor binding, [3H]-methoxyidazoxan displacement in rat brain homogenates; conditions: for Ki: rat brain homogenates, Table 4, read-out: Receptor Affinities (nM) α2; for affinity for the α2-adrenoceptor (in words): rat
[4] = tested on: Ox receptor; assay: Ox receptor binding, [3H]-rilmenidine displacement in rat brain homogenates; conditions: for Ki: read-out: Receptor Affinities (nM) Ox; for affinity for the Ox receptor (in words): rat
[5] = target: I2-receptor; assay: I2-receptor binding, [3H]-idazoxan displacement in rat brain homogenates; conditions: for Ki: rat brain homogenates, Table 3, read-out: Receptor Affinities (nM) I2; for affinity for the I2-receptor (in words): rat
Description: Male WKY rats are stunned and decapitated.
Brain membranes prepared as above, are incubated in the presence of [^3H]-methoxyidazoxan (52-57 Ci/mmol) 0.5 nM or [^3H]-idazoxan (43-45Ci/mmol) 1.6 nM in Tris.HCl buffer pH 7.4 for α2-adrenoceptor and I2-receptor binding respectively. Inhibition of binding is measured in the presence of increasing amounts of test compound (0.1 nM to 1 mM). Non-specific binding is estimated by addition of 10 μM phentolamine or 100 μM cirazoline respectively. Membrane bound radioactivity is isolated and measured as above by vacuum filtration, washing and scintillation counting. Data is analysed by the “RADLIG” program.

[6] = tested on: Ox receptor; assay: Selectivity data of Table 1 (Ox over alpha2), tissue not stated; assay type: binding; conditions: tissue and species not stated
Excerpt: The term “selectivity” as used herein refers to the selectivity of a compound for the Ox receptor over another receptor in mammalian tissue containing said receptors. The selectivity is the reciprocal of the ratio of the affinities (in nM) for each receptor site. Preferably the tissue is human tissue.
The compounds prepared above are represented in Table 1 below together with selectivity data where available.

[7] = rat brain homogenates, reciprocal of the ratio of affinities, >1 = more selective for Ox site
[8] = human brains, compared with rat

Row | affinity for the α2-adrenoceptor (in words) [3] | affinity for the Ox receptor (in words) [4] | Selectivity Ox/α2 [4, 7] | affinity for the I2-receptor (in words) [5] | Selectivity Ox/I2 [4, 7] | affinity for the Ox receptor (in words) [1, 8] | affinity for the I2-receptor (in words) [2, 8] | Compound | Ki [1] [nM] | Selectivity Ox/I2 [1] | Ki [2] [nM] | Ki [3] [nM] | Selectivity Ox/I2 [4] | Selectivity Ox/α2 [4] | Ki ([4]; rat brain homogenates, Table 3) [nM] | Ki ([4]; rat brain homogenates, Table 4) [nM] | Ki [5] [nM] | Selectivity Ox/apha2 [6]
1 | – | – | – | – | – | – | – | FC(F)(F)C(NC1=NCCO1)C1CC1 (single isomer, unassigned; (+)) [(+)-S8349] | 268 | 49 | 13000 | – | – | – | – | – | – | –
2 | – | – | – | – | – | – | – | FC(F)(F)C(NC1=NCCO1)C1CC1 (single isomer, unassigned; (-)) [(−)-S8350] | 199 | 32 | 7700 | – | – | – | – | – | – | –
3 | – | – | – | – | – | – | – | C[C@@H](NC1=NCCO1)C1CCCCC1 [(R)-(−)-O504, (R-(−)-2-(1-Cyclohexylethylamino)-oxazoline)] | 300 | 9 | 2700 | 590 | 1.8 | 18 | 31 | 32 | 56 | –
4 | – | – | – | – | – | – | – | C[C@H](NC1=NCCO1)C1CCCCC1 [(S)-(+)-O504, (S)-(+)-2-(1-Cyclohexylethylamino)-oxazoline] | 180 | 12 | 2190 | 30 | 6.7 | 1.5 | 106 | 20 | 707 | –
5 | – | – | – | – | – | – | – | C[C@H](NC1=NCCO1)c1cccc2ccccc12 [(S)-(−)-O506] | 99 | 77 | 7580 | – | – | – | – | – | – | –
6 | – | – | – | – | – | – | – | CCC1CCCC(C)C1NC1=NCCO1 (stereo not shown) [BAY-A6781] | 215 | 38 | 8250 | – | – | – | – | – | – | –
7 | poor affinity (μM) | poor (μM) affinity | <0.1 | high affinity (nM) | – | – | – | c1ccc2nc(C3=NCCN3)ccc2c1 [BU-224, 2-(4,5-dihydroimidaz-2-yl)quinoline] | 9580 | 0.0002 | 2.2 | 5480 | – | – | > 100000 | > 100000 | 0.9 | –
8 | – | – | – | – | – | – | – | CCC1CCCC(CC)C1NC1=NCCO1 (stereo not shown) [Compound O501] | 38 | 239 | 9100 | 210 | 383 | 12 | 18 | 18 | 6900 | –
9 | – | – | – | – | – | – | – | c1ccc(C(NC2=NCCO2)c2ccccc2)cc1 [Compound O502] | 234 | 3 | 686 | 380 | 12 | 2.4 | 160 | 160 | 1900 | –
10 | – | – | – | – | – | – | – | C1CCC(C(NC2=NCCO2)C2CCCCC2)CC1 [Compound O503] | 70 | 69 | 4800 | 640 | 32 | 5.5 | 117 | 117 | 3800 | –
11 | – | – | – | – | – | – | – | Oc1ccc(CCNC2=NCCO2)cc1 [Compound O508, 2-(4-hydroxyphenyl)ethylaminooxazoline] | – | – | – | – | – | – | – | – | – | 100
12 | – | – | – | – | – | – | – | CC(CNC1=NCCO1)c1ccc(OCc2ccccc2)cc1 (stereo not shown) [Compound O509, 2-(4-benzyloxyphenyl)propylaminooxazoline] | – | – | – | – | – | – | – | – | – | 2.0
13 | high affinity (nM) | poor (μM) affinity | 0.0003 | high affinity (nM) | 0.00004 | – | – | c1ccc2c(c1)OCC(C1=NCCN1)O2 (stereo not shown) [Idazoxan, 2-(1,4-benzodioxan)-imidazoline] | 6060 | 0.0008 | 4.8 | 15.6 | – | – | 62300 | 62300 | 2.3 | –
14 | – | high affinity (nM) | 27 | high affinity (nM) | 2.4 | lower affinity | lower affinity | C1COC(NC(C2CC2)C2CC2)=N1 [Rilmenidine] | 396 | 13 | 5220 | 410 | – | – | 15 | 15 | 36 | –

Row | Compound | affinity for the α2-adrenoceptor (in words) [3] | affinity for the Ox receptor (in words) [4] | Selectivity Ox/α2 [4, 7] | affinity for the I2-receptor (in words) [5] | Selectivity Ox/I2 [4, 7] | affinity for the Ox receptor (in words) [1, 8] | affinity for the I2-receptor (in words) [2, 8] | Ki [1] [nM] | Selectivity Ox/I2 [1] | Ki [2] [nM] | Ki [3] [nM] | Selectivity Ox/I2 [4] | Selectivity Ox/α2 [4] | Ki ([4]; rat brain homogenates, Table 3) [nM] | Ki ([4]; rat brain homogenates, Table 4) [nM] | Ki [5] [nM] | Selectivity Ox/apha2 [6]
15 | COC1(C2=NCCN2)COc2ccccc2O1 (stereo not shown) [Methoxyidazoxan, 2-(2-methoxy-1,4-benzodioxan)-imidazoline)] | high affinity (nM) | poor affinity (μM) | – | poor affinity (μM) | – | – | – | 100000 | 1 | > 100000 | 1.9 | 0.08 | – | 319000 | 319000 | 24400 | –
